Experimental data taken from publication PMC4831868 (Cell reports, 2012).

Target: pHipA (Escherichia coli, UniProt P23874)
Assay: ITC
Details: no binding

pHipA, sequence (P23874 whole entry, looked up): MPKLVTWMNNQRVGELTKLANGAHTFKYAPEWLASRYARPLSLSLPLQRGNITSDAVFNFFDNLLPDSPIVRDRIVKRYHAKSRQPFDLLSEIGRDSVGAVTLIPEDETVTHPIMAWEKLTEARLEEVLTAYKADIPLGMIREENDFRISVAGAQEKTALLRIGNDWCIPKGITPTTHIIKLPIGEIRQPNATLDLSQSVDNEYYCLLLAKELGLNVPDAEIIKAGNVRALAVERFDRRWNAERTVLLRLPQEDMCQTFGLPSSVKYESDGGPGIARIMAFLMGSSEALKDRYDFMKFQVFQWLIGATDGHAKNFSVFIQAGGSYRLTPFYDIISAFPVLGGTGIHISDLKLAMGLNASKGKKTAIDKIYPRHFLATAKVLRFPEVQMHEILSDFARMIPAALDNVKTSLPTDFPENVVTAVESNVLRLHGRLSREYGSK

Structure (SMILES): Nc1ncnc2c1ncn2[C@@H]1O[C@H](COP(=O)(O)OP(=O)(O)NP(=O)(O)O)[C@@H](O)[C@H]1O [AMPPNP]
- ITC: revealed no interaction between ATP or the nonhydrolyzable ATP analogue, AMPPNP
